In paper PMC5421785, “Citrullination only infrequently impacts peptide binding to HLA class II MHC” (PLoS ONE, 2017):
Like-named read-outs stand apart in the source and are kept apart here. Square brackets hold non-standard residues; d marks the D form. Ends that are not written are not given here. Peptide text beside a SMILES is read from it. Cit = NC(=O)NCCC[C@H](N)C(=O)O

Tests used:
HLA-DRB1*01:01 = biological target: T1, HLA-DRB1*01:01 (Homo sapiens, UniProt P01903+P01911, A100R/D57E/F55L/F60I/F76Y/I96L/L162R/M171V/P40L/Q125E/R42F/V115G/Y59C); assay: HLA class II peptide binding, inhibition of radiolabeled peptide binding to purified MHC
T1 construct: EBV transformed homozygous cell lines were used as sources of MHC molecules; endogenous in cells; host or cells: EBV transformed homozygous cell lines

HLA-DRB1*04:01 = biological target: T2, HLA-DRB1*04:01 (Homo sapiens, UniProt P01903+P01911, A100K/A169T/F76Y/I96L/K127E/L162R/M171V/N62H/P40V/Q125Y/R42H/S133A/S149N/S66Y/V115G/V209L/W38E); assay: as above
T2 construct: EBV transformed homozygous cell lines were used as sources of MHC molecules; endogenous in cells; host or cells: EBV transformed homozygous cell lines

[1] = ratio of WT IC50 to Cit IC50, >1 = citrullination increases binding
[2] = wild-type (unmodified Arg) 15-mer peptide, purified HLA-DRB1*01:01, read-out: DRB1*01:01 binding capacity, WT peptide (IC50 nM)
[3] = wild-type (unmodified Arg) 15-mer peptide, purified HLA-DRB1*04:01, read-out: DRB1*04:01 binding capacity, WT peptide (IC50 nM)
[4] = read-out: DRB1*01:01 binding capacity, WT peptide (IC50 nM)
[5] = read-out: DRB1*04:01 binding capacity, WT peptide (IC50 nM)

IC50 (HLA-DRB1*01:01; [2]) [nM]	IC50 (HLA-DRB1*04:01; [3]) [nM]	IC50 (HLA-DRB1*01:01; [4]) [nM]	IC50 (HLA-DRB1*04:01; [5]) [nM]	Compound	further results
31000	> 40000			PTGKQGDRGEAGAQG [Collagen 1081 WT]	
		771	6320	TAALRDVRQQYESVA [Vimentin 266 WT]	
		25	725	VSSSSYRRMFGGPGT [Vimentin 6 WT]	

The next lines start with the compound.

Compound	IC50 (HLA-DRB1*01:01; [2]) [nM]	IC50 (HLA-DRB1*04:01; [3]) [nM]	IC50 (HLA-DRB1*01:01; [4]) [nM]	IC50 (HLA-DRB1*04:01; [5]) [nM]	further results
CC(C)C[C@H](NC(=O)[C@H](CO)NC(=O)[C@H](C)NC(=O)[C@H](CC(N)=O)NC(=O)[C@H](CC(=O)O)NC(=O)[C@@H](NC(=O)[C@H](CC(=O)O)NC(=O)[C@H](CCC(N)=O)NC(=O)[C@H](CCCNC(N)=O)NC(=O)[C@H](Cc1ccccc1)NC(=O)[C@H](CO)NC(=O)[C@H](CCC(N)=O)NC(=O)[C@H](CC(C)C)NC(=O)[C@@H](NC(=O)[C@@H](N)CC(N)=O)[C@@H](C)O)C(C)C)C(=O)O [NTLQSFXQDVDNASL] (H-NTLQSF[Cit]QDVDNASL-OH)					IC50 (HLA-DRB1*01:01; citrullinated 15-mer (X), purified MHC, inhibition of radiolabeled peptide binding, dash = IC50 >40,000 nM, read-out: DRB1*01:01 binding capacity, Cit peptide (IC50 nM)): 2000 nM; IC50 (HLA-DRB1*04:01; citrullinated 15-mer (X), purified MHC, inhibition of radiolabeled peptide binding, dash = IC50 >40,000 nM, read-out: DRB1*04:01 binding capacity, Cit peptide (IC50 nM)): 702 nM
C[C@H](NC(=O)CNC(=O)[C@H](C)NC(=O)[C@H](CCC(=O)O)NC(=O)CNC(=O)[C@H](CCCNC(N)=O)NC(=O)[C@H](CC(=O)O)NC(=O)CNC(=O)[C@H](CCC(N)=O)NC(=O)[C@H](CCCCN)NC(=O)CNC(=O)[C@@H](NC(=O)[C@@H]1CCCN1)[C@@H](C)O)C(=O)N[C@@H](CCC(N)=O)C(=O)NCC(=O)O [PTGKQGDXGEAGAQG] (H-PTGKQGD[Cit]GEAGAQG-OH; N-terminus and C-terminus assumed)					IC50 (HLA-DRB1*01:01; citrullinated 15-mer peptide (X = citrulline), purified HLA-DRB1*01:01, read-out: DRB1*01:01 binding capacity, Cit peptide (IC50 nM)): > 40000 nM; DRB1*01:01 binding capacity, WT/cit ratio (HLA-DRB1*01:01; [1]): 0.6; IC50 (HLA-DRB1*04:01; citrullinated 15-mer peptide (X = citrulline), purified HLA-DRB1*04:01, read-out: DRB1*04:01 binding capacity, Cit peptide (IC50 nM)): > 40000 nM; DRB1*04:01 binding capacity, WT/cit ratio (HLA-DRB1*04:01; [1]): 1.0
LPLVDTHSKRTLLIK [Vimentin 431 WT]	641	5090			
CSCC[C@H](NC(=O)[C@H](CCC(=O)O)NC(=O)[C@H](CCC(=O)O)NC(=O)[C@H](CCCCN)NC(=O)[C@H](CCSC)NC(=O)[C@@H](N)CC(N)=O)C(=O)N[C@@H](C)C(=O)N[C@@H](CCCNC(=N)N)C(=O)N[C@@H](Cc1c[nH]cn1)C(=O)N[C@@H](CC(C)C)C(=O)N[C@@H](CCCNC(=N)N)C(=O)N[C@@H](CCC(=O)O)C(=O)N[C@@H](Cc1ccc(O)cc1)C(=O)N[C@@H](CCC(N)=O)C(=O)N[C@@H](CC(=O)O)C(=O)O [Vimentin 371 WT]	3020	> 40000			
NDRFANYIDKVRFLE [Vimentin 111 WT]			862	16400	
CSCC[C@H](NC(=O)[C@H](CCC(N)=O)NC(=O)[C@@H](NC(=O)[C@H](CC(N)=O)NC(=O)[C@H](C)NC(=O)[C@@H](NC(=O)[C@H](CC(N)=O)NC(=O)[C@@H]1CCCN1C(=O)[C@H](C)NC(=O)[C@@H](N)CC(C)C)[C@@H](C)O)C(C)C)C(=O)N[C@H](C(=O)N[C@@H](Cc1ccccc1)C(=O)N[C@@H](CC(C)C)C(=O)N[C@@H](CCCNC(N)=O)C(=O)N[C@@H](CC(C)C)C(=O)O)[C@@H](C)O [LAPNTANVQMTFLXL] (H-LAPNTANVQMTFL[Cit]L-OH)					IC50 (HLA-DRB1*01:01; citrullinated peptide as listed (X at Cit position), read-out: DRB1*01:01 binding capacity Cit peptide (IC50 nM)): 54 nM; IC50 (HLA-DRB1*04:01; citrullinated peptide as listed (X at Cit position), read-out: DRB1*04:01 binding capacity Cit peptide (IC50 nM)): 17400 nM
